The text below walks through data of patent publication US20230271959A1, “HETEROCYCLIC COMPOUND AS BCL-2 INHIBITOR” (Beijing Innocare Pharma Tech Co., Ltd., priority 2020, published 2023).

The IC50 is the midpoint of a concentration-inhibition curve.

Test [1] deals with RS4;11 cells (acute lymphoblastic leukemia cells). The experiment in a line: RS4;11 cell proliferation, CellTilter-Glo luminescence cell viability assay. The settings on record: Homo sapiens, RS4-11; CTG readout after 48 hours. The test is classed as cell-based. Here is the method:
The effects of the compounds of the present invention on the proliferation of RS4;11 cells were evaluated using a luminescence cell viability assay.
A CellTilter-Glo (CTG) Assay Kit is used to detect ATP, a key indicator of the metabolism of living cells, through a unique, highly sensitive and stable luciferase. The luminescent signal generated in the assay is proportional to the number of the viable cells in the medium, therefore the cell proliferation of RS4;11 can be determined.
CellTilter-Glo reagent (Promega, G7572) is composed of CellTilter-Glo lyophilized powder and CellTilter-Glo buffer, and the lyophilized powder can be dissolved in the buffer for use.
RS4;11 cells (ATCC, CRL-1873) were cultured in RPMI1640 complete medium (Thermofisher, 72400-047) containing 10% FBS (GBICO, 10099-141) and 100 units/ml penicillin-streptomycin solution (Thermofisher, 15140122)), when the cells covered 80-90% in the culture vessel, they were digested and dispersed with 0.25% trypsin (containing EDTA) (Thermofisher, 25200056) and then planted in a white 384-well plate (Thermofisher, 164610), and then the 384-well plate was incubated overnight in a 37° C., 5% CO2 incubator. Compounds were dissolved in 100% DMSO and diluted to […], followed by 4-fold serial dilutions with DMSO to a minimum concentration of 0.061 μM, and each concentration point was further diluted 50-fold with FBS-free RPMI1640 medium. If the IC50 of the compound is very low, the initial concentration of the compound can be reduced. After overnight, 3 μL of the compound diluted in the medium was added to each well, and the mixture was gently centrifuged to mix. The group without cells was used as a negative control (100% inhibition), and the group with 0.2% DMSO was used as a positive control (0% inhibition). The 384-well plate was placed in a 37° C., 5% CO2 incubator for further cultivation. After 48 hours, the plate was taken out and equilibrated to room temperature. 15 μl of CTG reagent was added to each well, the plate was shaken gently for 3 minutes to make sure that the cell lysis was carried out thoroughly, then the plate was kept for 10 minutes to stabilize the luminescence signal, then the luminescence signal was read by EnVision (Perkin Elmer).
The inhibition percentage of the compounds to RS4;11 cell proliferation can be calculated using the following equation:
Inhibition Percentage=100−100*(signal compound-signal negative control)/(signal positive control-signal negative control)
(§1) The IC50 of the compound was calculated from 8 concentration points using XLfit (ID Business Solutions Ltd., UK) software by the following equation:
Y=Bottom+(Top−Bottom)/(1+10^((Log IC50−X)*slope factor))
wherein, Y is the inhibition percentage, Bottom is the bottom plateau of the curve (the bottom plateau value of the S-shaped curve), Top is the top plateau of the curve (the top plateau value of the S-shaped curve), and X is the logarithm of the concentration of the compound to be tested.

In test [2] the target is T1, human recombinant Bcl-XL protein (Homo sapiens, UniProt Q07817).
T1 construct: purchased Beijing Yiqiao Shenzhou Biotechnology Co., Ltd. 10455-H0SE
T1 sequence (Q07817 whole entry): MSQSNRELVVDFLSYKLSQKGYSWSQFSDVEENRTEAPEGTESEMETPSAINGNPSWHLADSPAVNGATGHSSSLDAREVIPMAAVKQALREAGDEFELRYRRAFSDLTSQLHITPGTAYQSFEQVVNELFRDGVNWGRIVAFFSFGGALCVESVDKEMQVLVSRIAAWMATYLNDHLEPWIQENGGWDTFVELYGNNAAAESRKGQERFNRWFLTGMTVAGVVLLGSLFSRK
The experiment in a line: Fluorescence polarization test for inhibition of BCL-XL binding to FITC-BIM. The settings on record: 10 nM BCL-XL, 10 nM FITC-BIM, read-out: FP BCL-XL IC50. Here is the method:
Fluorescence polarization assay was used to evaluate the effect of the compounds of the present invention on the biological activity of BCL-XL.
The effects of the compounds on the biological activity of BCL-XL were evaluated by detecting the effects of the compounds on the binding activity of BCL-XL to BIM using an affinity assay method based on the principle of fluorescence polarization. The reaction buffer contains the following components: PBS (pH 7.4, 3 mM Na2HPO4, 155 mM NaCl, 1 mM KH2PO4), 1 mM DTT; human recombinant Bcl-XL protein (Item No. 10455-H0SE) (purchased from Beijing Yiqiao Shenzhou Biotechnology Co., Ltd.) was diluted to 10 nM with reaction buffer; FITC-labeled BIM polypeptide (purchased from Nanjing GenScript Biotechnology Co., Ltd) was diluted to 10 nM with reaction buffer.
The compounds were dissolved in 100% DMSO and diluted to 1 μM, followed by 4-fold serial dilutions in DMSO to a minimum concentration of 0.061 nM, each concentration point was further diluted 50-fold with reaction buffer.
3 μL of solution containing the compound and 12 μL of solution containing BCL-XL were added to the black 384-well assay plate, mixed well, and incubated at room temperature for 15 minutes. Subsequently, 15 μL of FITC-BIM solution was added, and the reaction mixture was incubated at room temperature for 30 minutes in the dark place, and then the fluorescence polarization was detected immediately on an Envision multi-plate reader (Perkin Elmer), with 480 nm as the excitation wavelength and 535 nm as the emission wavelength. In this experiment, the group without BCL-XL protein was used as a negative control (100% inhibition), and the group with BCL-XL protein but without the compound was added as a positive control (0% inhibition). The inhibition percentage of the compound to the affinity of BCL-XL can be calculated using the following equation: […]
as §1
(§2) Y=Bottom+(Top−Bottom)/(1+10^((log IC50−X)*slope factor))
(§3) where Y is the inhibition percentage, X is the logarithm of the concentration of the compound to be tested, Bottom is the maximum inhibition percentage, Top is the minimum inhibition percentage, and slope factor is the slope coefficient of the curve.

Test [3] addresses T2, human recombinant Bcl-2 protein (Homo sapiens, UniProt P10415).
T2 construct: purchased Beijing Yigiao Shenzhou Biotechnology Co., Ltd. 10195-HOSE
Nature of the test: Fluorescence polarization test for inhibition of BCL-2 binding to FITC-BIM. Particulars: 5 nM BCL-2, 5 nM FITC-BIM, read-out: FP BCL-2 IC50. As for the experimental part:
Fluorescence polarization assay was used to evaluate the effect of the compounds of the present invention on the biological activity of BCL-2.
The effects of the compounds on the biological activity of BCL-2 were evaluated by determining the effects of the compounds on the binding activity of BCL-2 to leukemia pro-apoptotic protein (BIM) using an affinity assay method based on the principle of fluorescence polarization. The reaction buffer comprises the following components: PBS (pH 7.4, 3 mM Na2HPO4, 155 mM NaCl, 1 mM KH2PO4), 1 mM DTT; human recombinant Bcl-2 protein (Item No. 10195-HOSE) (purchased from Beijing Yigiao Shenzhou Biotechnology Co., Ltd.) was diluted to 5 nM with the reaction buffer; FITC-labeled BIM polypeptide (purchased from Nanjing GenScript Biotechnology Co., Ltd.) was diluted to 5 nM with the reaction buffer.
The compounds were dissolved in 100% DMSO and diluted to 0.1, 1, 10 μM, followed by 4-fold serial dilutions with DMSO to a minimum concentration of 0.0061, 0.061, 0.61 nM, each concentration point was further diluted 50-fold with the reaction buffer.
3 μL of solution containing the compound and 12 μL of solution containing BCL-2 were added to the black 384-well assay plate, mixed well, and incubated at room temperature for 15 minutes. Subsequently, 15 μL of FITC-BIM solution was added, and the reaction mixture was incubated at room temperature for 30 minutes in dark place, and then the fluorescence polarization was detected immediately on an Envision multi-mode reader (Perkin Elmer), with 480 nm as the excitation wavelength and 535 nm as the emission wavelength. In this experiment, the group without BCL-2 protein was used as a negative control (100% inhibition), and the group with BCL-2 protein but without the compound was used as a positive control (0% inhibition). The inhibition percentage of the compound to the affinity of BCL-2 can be calculated using the following equation: […]
as §1, §2, §3

T2 sequence (P10415 whole entry): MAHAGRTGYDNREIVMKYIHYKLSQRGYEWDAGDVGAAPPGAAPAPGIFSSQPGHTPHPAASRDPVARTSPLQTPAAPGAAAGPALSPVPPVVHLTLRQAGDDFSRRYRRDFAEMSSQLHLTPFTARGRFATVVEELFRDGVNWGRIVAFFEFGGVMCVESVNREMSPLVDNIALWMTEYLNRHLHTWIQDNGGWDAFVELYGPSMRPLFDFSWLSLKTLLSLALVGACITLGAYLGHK

Regarding `C[C@@H]1CN(c2ccc(C(=O)NS(=O)(=O)c3ccc(NCC4CCOCC4)c([N+](=O)[O-])c3)c(Oc3cnc4[nH]ccc4c3)c2)CCN1CC1=C(c2ccc(Cl)cc2)CCC(C)(C)C1` [Example 27, (R)-2-((1H-pyrrolo[2,3-b]pyridin-5-yl)oxy)-4-(4-((4′-chloro-4,4-dimethyl-3,4,5,6-tetrahydro-[1,1′-biphenyl]-2-yl)methyl)-3-methylpiperazin-1-yl)-N-((3-nitro-4--(((tetrahydro-2H-pyran-4-yl)methyl)amino)phenyl)sulfonyl)benzamide], the IC50 was 16 nM in test [1], > 1000 nM in test [2] and 5.12 nM in test [3].

For `C[C@H]1CN(c2ccc(C(=O)NS(=O)(=O)c3ccc(NC[C@H]4COCCO4)c([N+](=O)[O-])c3)c(Oc3cnc4[nH]ccc4c3)c2)CCN1CC1=C(c2ccc(Cl)cc2)CC(C)(C)CC1` [Example 48, N-((4-((((S)-1,4-dioxan-2-yl)methyl)amino)-3-nitrophenyl)sulfonyl)-2-((1H-pyrrolo[2,3-b]pyridin-5-yl)oxy)-4-((S)-4-((4′-chloro-5,5-dimethyl-3,4,5,6-tetrahydro-[1,1′-biphenyl]-2-yl)methyl)-3-methylpiperazin-1-yl) benzamide], the IC50 is 229 nM in test [1], > 1000 nM in test [2] and 63.8 nM in test [3].

In the case of `C[C@@H]1CN(c2ccc(C(=O)NS(=O)(=O)c3cc(F)c(NC[C@@H]4COCCO4)c([N+](=O)[O-])c3)c(Oc3cnc4[nH]ccc4c3)c2)CCN1CC1=C(c2ccc(Cl)cc2)CC(C)(C)CC1` [Example 55, N-((4-((((R)-1,4-dioxan-2-yl)methyl)amino)-3-fluoro-5-nitrophenyl)sulfonyl)-2-((1H-pyrrolo[2,3-b]pyridin-5-yl)oxy)-4-((R)-4-((4′-chloro-5,5-dimethyl-3,4,5,6-tetrahydro-[1,1′-biphenyl]-2-yl)methyl)-3-methylpiperazin-1-yl)benzamide], the 50% inhibitory concentration (IC50) in test [1] is 5.7 nM; in test [2] it was > 1000 nM; in test [3], 2.3 nM.

On to `C[C@@H]1CN(c2ccc(C(=O)NS(=O)(=O)c3ccc(NCC4CCOCC4)c([N+](=O)[O-])c3)c(Oc3cnc4[nH]ccc4c3)c2)CCN1CC1=C(c2ccc(Cl)cc2)CCC2(CC2)C1` [Example 38], for which the figures for the IC50 in test [1], in test [2] and in test [3] were 32 nM, > 1000 nM and 5.24 nM, respectively.

In the case of `C[C@@H]1CN(c2ccc(C(=O)NS(=O)(=O)c3cc(F)c(NC[C@H]4COCCO4)c([N+](=O)[O-])c3)c(Oc3cnc4[nH]ccc4c3)c2)CCN1CC1=C(c2ccc(Cl)cc2)CC(C)(C)CC1` [Example 6, N-((4-((((S)-1,4-dioxan-2-yl)methyl)amino)-3-fluoro-5-nitrophenyl)sulfonyl)-2-((1H-pyrrolo[2,3-b]pyridin-5-yl)oxy)-4-((R)-4-((4′-chloro-5,5-dimethyl-3,4,5,6-tetrahydro-[1,1′-biphenyl]-2-yl)methyl)-3-methylpiperazin-1-yl) benzamide], the 50% inhibitory concentration (IC50) was 2.37 nM in test [1], > 1000 nM in test [2] and 0.9 nM in test [3].

As for `C[C@@H]1CN(c2ccc(C(=O)NS(=O)(=O)c3cc(F)c(NC[C@H]4COCCO4)c([N+](=O)[O-])c3)c(Oc3cnc4[nH]ccc4c3)c2)CCN1CC1=C(c2ccc(Cl)cc2)CC(C)(C)C(C)(C)C1` [Example 41, N-((4-((((S)-1,4-dioxan-2-yl)methyl)amino)-3-fluoro-5-nitrophenyl)sulfonyl)-2-((1H-pyrrolo[2,3-b]pyridin-5-yl)oxy)-4-((R)-4-((4′-chloro-4,4,5,5-tetramethyl-3,4,5,6-tetrahydro-[1,1′-biphenyl]-2-yl)methyl)-3-methylpiperazin-1-yl)benzamide], the IC50 in test [1] is 8 nM; in test [2], > 1000 nM; in test [3], 1.28 nM.

`C[C@@H]1CN(c2ccc(C(=O)NS(=O)(=O)c3ccc(NC[C@H]4COCCO4)c([N+](=O)[O-])c3)c(Oc3cnc4[nH]ccc4c3)c2)CCN1CC1=C(c2ccc(Cl)cc2)CCC(C)(C)C1` [Example 29, N-((4-((((S)-1,4-dioxan-2-yl)methyl)amino)-3-nitrophenyl)sulfonyl)-2-((1H-pyrrolo[2,3-b]pyridin-5-yl)oxy)-4-((R)-4-((4′-chloro-4,4-dimethyl-3,4,5,6-tetrahydro-[1,1′-biphenyl]-2-yl)methyl)-3-methylpiperazin-1-yl) benzamide]: the figures for the IC50 in test [1], in test [2] and in test [3] were 4.2 nM, > 1000 nM and 1.6 nM, respectively.

Turning to `C[C@@H]1CCC(CN2CCN(c3ccc(C(=O)NS(=O)(=O)c4ccc(NCC5CCOCC5)c([N+](=O)[O-])c4)c(Oc4cnc5[nH]ccc5c4)c3)C[C@H]2C)=C(c2ccc(Cl)cc2)C1` [Example 19, 2-((1H-pyrrolo[2,3-b]pyridin-5-yl)oxy)-4-((R)-4-(((R)-4′-chloro-5-methyl-3,4,5,6-tetrahydro-[1,1′-biphenyl]-2-yl)methyl)-3-methylpiperazin-1-yl)-N-((3-nitro-4-(((tetrahydro-2H-pyran-4-yl)methyl)amino)phenyl)sulfonyl)benzamide], the values for the IC50 in test [1], in test [2] and in test [3] were 4.25 nM, > 1000 nM and 2.13 nM, respectively.
